This is an account of results in patent publication US5770625A, “Butyryl-tyrosinyl spermine, analogs thereof and methods of preparing and using same” (priority 1994, dated 1998).

One experiment relates to locust muscle QUIS-R. The experiment can be described thus: Voltage dependence of antagonism of locust muscle QUIS-R. As to conditions: block relieved above about -100 mV. From the text: PhTX-343 binds to the QUIS-R channel, possible at a site located within its selectivity filter (35,36). Other studies in our laboratories have shown that antagonism of locust muscle QUIS-R by PhTX-343 and compound 13, the diiodo analogue, is voltage-dependent, as one might expect for open channel blockers carrying a net positive charge. […] Cation-selective membrane channels are generally envisaged as aqueous pores lined by fixed negative charges. In the case of the amphibian nicotinic acetylcholine receptor the latter are thought to be concentrated in three clusters in the vicinity of the selectively filter (41). […] The relative disposition and number of protonated groups on the toxin seems to be important in determining potency, which appears to be maximized for a given number of protonated groups when these have a constant spacing of three methylenes on their equivalents.

Experiment [1] concerns postsynaptic QUIS-R of locust leg muscle. The experiment can be described thus: Antagonism of neurally-evoked twitch contraction of locust retractor unguis nerve-muscle preparation. Set-up: species or system Schistocerca gregaria. As to conditions: for physiological activity relative to that of PhTX-433, by locust muscle twitch inhibition concentration: PhTX-433 = 100%; for effect on the neurally-evoked twitch contraction (in words): toxin 1-10 μM. From the text: Electrophysiological studies. The metathoracic retractor unguis nerve-muscle preparation of the locust Schistocerca gregaria was dissected and mounted in a small Perspex bath as described previously (21). The pharmacological activity on the locust nerve muscle preparation, using reduction in neurally evoked twitch amplitude as the measure of activity. Ten fractions were pharmacologically active. […] Further purification of this fraction by reverse-phase HPLC gave four peaks (FIG. 2B), the most pharmacologically was in the major peak (hatched FIG. 2B) . This fraction gave 1.1 mg of toxin as amorphous powder.
The retractor unguis muscle and its nerve were dissected from the metathoracic legs of adult, female locusts (Schistocerca gregaria) and mounted in a Perspex perfusion chamber as described by Usherwood and Machili (21) and Bateman, et al. (14). The muscle was stretched to maximal body length and attached at its tendon or apodeme to a Grass FT 10-strain gauge by a short length of nylon thread. The volume of the muscle bath was about 0.5 ml and its contents could be exchanged within 1 sec. The preparation was perfused continuously at the rate of 5-10 ml min^-1 (except during the application of toxin (see below)) with standard locust saline of the following composition (mM): NaCl, 180; KCl, 10; CaCl2, 2; Hepes, 10; buffered to pH 6.8. The retractor unguis muscle is innervated by two excitatory motoneurons (30) and an inhibitory motoneuron (19,32), but the influence of the latter on the responsiveness of the muscle is slight. Maximal stimulation of the retractor unguis nerve at 0.2 Hz produced a series of twitch contractions of constant amplitude, which were maintained for many hours in good preparations. The test compounds were kept at -20° C. They were dissolved in locust saline on the day of the assay and tested at room temperature. The compounds were applied by pipette to a nerve-muscle preparation such that the contents of the perfusion bath were completely replaced by the test solution. Exposure to the test compound lasted 20 min. Because of the limited availability of some of the compounds, the preparation was not perfused during this period. However, the amplitude of the retractor unguis muscle twitch rarely changed by more than 5-10% over a 20 minute period. During application of the test solutions the stimulation frequency was raised to 0.6 Hz for brief periods to test for stimulus frequency-dependent effects on twitch amplitude (31,37). Dose-inhibition data were obtained by testing the effects, on single retractor unguis muscle preparations, of a range of concentrations of the test compounds. Each concentration of the respective samples was tested at least thee times, and each compound was assayed usually over a 100-fold concentration range (a total of 7-10 concentrations). The standard deviations for twitch inhibition for any given concentration of a toxin rarely exceed 10%. Those compounds for which the deviation was greater than this are identified in Tables 1-7. There was some variation in the potency of PhTX-343 and the test compounds between nerve-muscle preparations. In order to compensate for this, the following procedure was adopted: PhTX-343 was assayed at a variety of concentrations on eight retractor unguis nerve-muscle preparations to give a cumulative dose-inhibition relationship for this toxin. The concentration of PhTX-343 which reduced the twitch contraction by 50% (IC50) was then determined by fitting a curve to the data using the following equation: [formula] where: [T]= toxin concentration, I= % inhibition, Imax =maximum inhibition= 100% and n' represents the Hill slope coefficient. […] The ratio of the actual reduction in twitch amplitude obtained with this single concentration of PhTX-343 and the 50% reduction that was anticipated from the cumulative dose-inhibition relationship for this toxin, was then used as a factor to normalize the data for the test compound. […]

The test system of experiment [2] is postjunctional, quisqualate-sensitive glutamate receptors. The experiment can be described thus: Response of the retractor unguis muscle to bath-applied L-glutamate. Also on record: species or system Schistocerca gregaria.
In experiment [3] the target is NMDA receptors of rat brain. The experiment can be described thus: Inhibition of glutamate-induced [3H]MK-801 binding to synaptic membranes (filtration assay). To be noted: read-out: EC50 (the concentration that inhibits 50% of binding) of [3H]MK-801. From the text:
Binding PhTX-433 to NMDA Receptor. The NMDA receptor is identified by its high affinity for the compound (+)-5-methyl-10,11-dihydro-5H-dibenzo[a,d]cyclohepten-5,10-imine maleate (MK-801). Th is compound is an anticonvulsant introduced by Merck Sharp & Dohme Co. and is a potent non-competitive antagonist of the NMDA receptor. Binding of [^3 H]MK-801 t o synaptic membranes from rat brain after thorough washing is extremely poor. However, the binding (measured by a filtration assay) is potentiated by glutamate in a dose-dependent manner and reaches maximal potentiation at 10 μM glutamate (26). The increase in binding of [^3 H]MK-801 resulting from addition of glutamate has been used as an index of NMDA recep tor binding.

The mark [4] stands for this setting: Table 3, region C modifications, read-out: IC50.
The mark [5] stands for this setting: Table 3, relative to PhTX-343 = 1.0.

Where two headings read alike, the source gives them in different places.

Regarding `CCCC(=O)N[C@@H](Cc1ccc(O)cc1)C(=O)NCCCNCCCCNCCCN` [Compound 1, PhTX-343], the “voltage dependence of antagonism” value with locust muscle QUIS-R was “voltage-dependent”. In experiment [1], the “potency compared with natural PhTX-433 (in words)” value is listed as “somewhat less active”; the “physiological activity relative to that of PhTX-433, by locust muscle twitch inhibition concentration” value amounted to 80%; the “effect on the neurally-evoked twitch contraction (in words)” value (“effect … (in words)” for short) is listed as “influenced the twitch contraction in the same qualitative fashion as PhTX-433”. The IC50 in experiment [1] (cumulative dose-inhibition on eight nerve-muscle preparations, read-out: concentration which reduced the twitch contraction by 50% (IC50)) was determined as 23 µM.

Turning to `CCCC(=O)N[C@@H](Cc1ccc(O)cc1)C(=O)NCCCCNCCCNCCCN` [Compound 2, PhTX-433], the “effect … (in words)” value in experiment [1] is listed as “abolished the twitch”. The “effect on the response of the muscle to L-glutamate” value in experiment [2] is recorded as “reduced the response of the retractor unguis muscle to L-glutamate”. Also, the EC50 in experiment [3] worked out at 25 µM.

On to `CCCCCCC(=O)N[C@@H](Cc1ccc(O)cc1)C(=O)NCCCNCCCCNCCCN` [Compound 19], for which, in experiment [1], the “potency compared with PhTX-343 or other analogues (in words)” value is on record as “successive increases in potency”.

With `[N-]=[N+]=Nc1ccc(C(=O)N[C@@H](Cc2cc(I)c(O)c(I)c2)C(=O)NCCCNCCCCNCCCNC(=O)[C@@H](N)CCCCN)cc1` [drawing 68], the IC50 in experiment [1] (Table 5, modifications to more than one region, read-out: IC50) amounted to 1.8 µM. Moreover, the “Relative Potency” value in experiment [1] (Table 5, relative to PhTX-343) was 13.

Consider `CCCC(=O)N[C@@H](CC(C)C)C(=O)NCCCNCCCCNCCCN` [drawing 36], for which the IC50 in experiment [1] (Table 2, region B modifications, * SD < 20%, read-out: IC50) came to 23 µM. The “Relative Potency” value in experiment [1] (Table 2, relative to PhTX-343 = 1.0) was 1.0.

Turning to `CCCC(=O)N[C@@H](Cc1cc(I)c(O)c(I)c1)C(=O)NCCCNCCCCNCCCN` [Compound 13], in the experiment with locust muscle QUIS-R, the “voltage dependence of antagonism” value is given as “voltage-dependent”. Besides, the “increase in potency compared with PhTX-343” value in experiment [1] was 4.5 fold.

Turning to `CCCC(=O)N[C@@H](Cc1ccc(O)cc1)C(=O)NCCCNCCCNCCCCN` [Compound 3, PhTX-334], in experiment [1], the “potency compared with natural PhTX-433 (in words)” value was “higher potency than the natural PhTX-433 toxin”; the “physiological activity relative to that of PhTX-433, by locust muscle twitch inhibition concentration” value is listed as 125%; the “effect … (in words)” value is on record as “influenced the twitch contraction in the same qualitative fashion as PhTX-433”.

`NCCCNCCCCNCCCNC(=O)[C@H](Cc1ccc(O)cc1)NC(=O)CCCNc1ccc([N+](=O)[O-])cc1[N+](=O)[O-]`: in experiment [1] (setting [4]), the IC50 stood at 53 µM. The “Relative Potency” value in experiment [1] (setting [5]) is 0.4.

For `CCCCCCCCCC(=O)NCCCNCCCCNCCCNC(=O)CCCCCCCCC` [drawing 82], the IC50 in experiment [1] (Table 7, bis-acyl spermine analogues, read-out: IC50) came out at 23 µM. This molecule also displayed a Relative Potency in experiment [1] (Table 7, bis-acyl spermine analogues, relative to PhTX-343) of 1.0.

For the molecule `C/C=C/C=C/C(=O)N[C@@H](Cc1ccc(O)cc1)C(=O)NCCCNCCCCNCCCN` [Compound 21], in experiment [1], the “potency compared with PhTX-343 or other analogues (in words)” value is recorded as “very potent”.

In the case of `CCCCCCC(=O)NCCCNCCCCNCCCN` [drawing 77], in experiment [1] (Table 7, mono-acyl spermine analogues, read-out: IC50), the IC50 came to 100 µM. Further, the “Relative Potency” value in experiment [1] (Table 7, mono-acyl spermine analogues, relative to PhTX-343) is 0.2.

Consider `[N-]=[N+]=C(C(=O)NCCCC(=O)N[C@@H](Cc1ccc(O)cc1)C(=O)NCCCNCCCCNCCCN)C(F)(F)F` [drawing 51], for which the IC50 in experiment [1] (setting [4]) worked out at 290 µM. Further, the “Relative Potency” value in experiment [1] (setting [5]) was 0.1.
